Target: EGFR (Homo sapiens, UniProt P00533)
Assay: in vitro EGFR kinase assay (Promega Kinase-Glo luminescence, […] ATP)
Format: biochemical

Sequence of EGFR (P00533 25-1210): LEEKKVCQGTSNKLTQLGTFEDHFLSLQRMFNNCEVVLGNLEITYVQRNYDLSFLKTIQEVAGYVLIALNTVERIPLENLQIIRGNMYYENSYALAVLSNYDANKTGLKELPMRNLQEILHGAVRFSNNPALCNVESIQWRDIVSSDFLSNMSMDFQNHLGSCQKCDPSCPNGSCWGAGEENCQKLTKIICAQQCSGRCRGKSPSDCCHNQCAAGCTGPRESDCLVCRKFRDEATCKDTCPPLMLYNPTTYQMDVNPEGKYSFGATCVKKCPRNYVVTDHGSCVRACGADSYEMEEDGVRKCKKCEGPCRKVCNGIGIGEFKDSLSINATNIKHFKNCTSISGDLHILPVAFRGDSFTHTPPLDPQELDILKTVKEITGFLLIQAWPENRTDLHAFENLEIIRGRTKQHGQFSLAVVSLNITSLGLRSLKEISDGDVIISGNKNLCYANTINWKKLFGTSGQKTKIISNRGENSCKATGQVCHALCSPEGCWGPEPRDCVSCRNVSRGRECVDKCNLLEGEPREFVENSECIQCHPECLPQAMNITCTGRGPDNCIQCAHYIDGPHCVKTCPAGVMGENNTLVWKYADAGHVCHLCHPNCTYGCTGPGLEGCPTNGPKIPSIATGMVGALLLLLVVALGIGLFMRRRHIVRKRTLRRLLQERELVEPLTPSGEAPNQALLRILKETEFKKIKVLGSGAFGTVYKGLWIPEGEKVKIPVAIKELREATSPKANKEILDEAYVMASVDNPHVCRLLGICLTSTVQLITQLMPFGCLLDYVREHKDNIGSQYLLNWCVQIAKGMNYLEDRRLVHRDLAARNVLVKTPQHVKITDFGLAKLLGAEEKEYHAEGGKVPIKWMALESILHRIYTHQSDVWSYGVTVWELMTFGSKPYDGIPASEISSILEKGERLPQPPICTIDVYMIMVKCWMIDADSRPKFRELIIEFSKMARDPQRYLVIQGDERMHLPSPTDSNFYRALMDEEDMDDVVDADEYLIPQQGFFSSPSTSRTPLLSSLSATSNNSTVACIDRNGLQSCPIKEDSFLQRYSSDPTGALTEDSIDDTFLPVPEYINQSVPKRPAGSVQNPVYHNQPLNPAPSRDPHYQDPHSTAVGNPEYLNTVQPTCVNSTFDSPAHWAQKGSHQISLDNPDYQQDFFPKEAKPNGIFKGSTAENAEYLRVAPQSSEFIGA

IC50: ~43 nM
Structure (SMILES): O=C(Cc1ccccc1)N1CCc2c([nH]c3ccc(F)cc23)C1 [compound 308, WB-308]

— article PMC4466647, “Inhibition of non-small cell lung cancer (NSCLC) growth by a novel small molecular inhibitor of EGFR” (Oncotarget, 2015)
